Test results as given in patent publication US20050176672A1, “Use of cationic lipids to generate anti-tumor immunity” (Genzyme Corporation, priority 1999, published 2005).

Tests used:
[1] = test system: cytokine and cellular levels in the BALF; conditions: complexes formed between DOTMA and pDNA; Friemark et al. 1998; cited from earlier work
cytokines in BALF = experiment: Cytokine levels in mouse BALF after intranasal instillation (ELISA); format: in vivo, BALB/c mice; conditions: component instilled alone; BALF 24 h
Source text: Cytokine levels in the mouse BALF were quantitated using enzyme-linked immunosorbent assay (ELISA) kits as specified by the manufacturers. IFN-γ, TNF-α, IL1-α, IL-1β, IL-10 and IL-6 ELISA kits were from Genzyme Corporation, while mKC, MIP-2 and GM-CSF ELISA kits were from R&D Systems, and the Leukotriene B4 ELISA kit was from Perseptive Diagnostics.
The cationic lipid:pDNA complexes were formed by mixing equal volumes of GL67:DOPE (1:2) with pDNA as described previously (Lee et al., Hum. Gene Ther. 7: 1701-1717, (1996)) to a final concentration of 0.6:1.2:3.6 mM (GL-67:DOPE:pDNA) or 0.3:0.6:1.8 mM, as indicated in the figure legends. The DNA concentration is expressed in terms of nucleotides, using an average nucleotide molecular weight of 330 daltons. BALB/c mice were instilled intranasally with 100 μl of complex as described. See Scheule et al., Hum. Gene Ther. 8: 689-707 (1997). The animals were euthanized and their lungs were lavaged 24 h post-instillation using phosphate-buffered saline (PBS). The recovered BALF were centrifuged at 1,500 rpm for 4 min, and the resulting supernatants were removed and frozen at −80° C. for subsequent cytokine analysis. […]
To determine whether methylation of pDNA affected the inflammatory response in the lungs, we measured the levels of several different cytokines in the BALF 24 h after instillation. […]

BALB/c mouse lungs = experiment: Histopathological analysis of lung after intranasal instillation; format: in vivo, BALB/c mice; conditions: component alone; scale from 0 to 4; 2 days post-instillation
Source text: The histopathological changes within BALB/c mouse lungs following administration of either cationic lipid alone, pDNA alone, or cationic lipid:pDNA complexes were also examined. BALB/c mice were instilled intranasally with GL-67:(m)pCF1-CAT, GL67:pCF1-CAT, GL-67 alone, (m)pCF1-CAT, pCF1-CAT, or water (vehicle control). Mice were sacrificed 2 days post-instillation and the lungs were processed for histological examination in a blinded manner. Histopathology.
Lungs were fixed by inflation at 30 cm of H2O pressure with 2% paraformaldehyde and 0.2% glutaraldehyde. Representative samples were taken from each lung lobe, embedded in glycol methacrylate, sectioned and stained with hematoxylin and eosin. Histopathology on the lung was evaluated in a blinded fashion and graded subjectively using a scale of 0 to 4, where a score of 0 indicates no abnormal findings and a score of 4 reflects severe changes with intense infiltrates. See Scheule et al., Hum. Gene Ther. 8: 689-707 (1997).
The extent of lung inflammation was graded using a scale from 0 to 4, with 0 indicating no abnormalities, 1 indicating a minimal change, 2 a mild change, 3 a moderate change, and 4 representing severe changes from a normal lung (FIG. 4).

M3 melanoma cells = experiment: M3 melanoma model; format: in vivo, mice; conditions: lipid alone, equivalent amount; treated days 5, 10, 14, 18
Procedure: On day 0, mice were inoculated intraperitoneally with M3 melanoma cells. Following the inoculation of M3 tumor cells, the mice were treated on days […], 14, and 18 with either the GL67:pNull complex, which is cationic lipid GL67 complexed to a null vector (a vector without an expressible insert), or were left untreated (control). All untreated control animals died by day 40, while greater than 85% of the animals treated with the GL 67:pNull complex were alive on day 68.
On day 68, the surviving animals were rechallenged subcutaneously with M3 tumor cells. A naive group of animals was also challenged with these same cells in parallel. All the animals in the naive group died by day 105, while approximately 40% of the animals that had been originally treated with the GL 67:pNull complex survived not only the initial intraperitoneal tumor cells but also the secondary subcutaneous challenge.
Following the intraperitoneal inoculation on day 0 of M3 tumor cells, groups of mice were treated on days 5, 10, 14, and 18 with either GL 67:pNull complexes (lipid:pNull), an equivalent amount of GL 67 (lipid alone), an equivalent amount of pNull DNA (pNull vector alone), or were untreated.

Compound | cytokine and cellular levels in the BALF of treated animals [1] | levels of these four cytokine (TNF-α, IFN-γ, IL-6, KC) in BALF (cytokines in BALF) | lung inflammation score (BALB/c mouse lungs) | mice surviving more than 50 days post tumor cell inoculation (M3 melanoma cells)
CCCCCCCC/C=C\CCCCCCCCOCC(C[N+](C)(C)C)OCCCCCCCC/C=C\CCCCCCCC.[Cl-] (stereo not shown) [DOTMA, N-[1-(2-3-dioleyloxy)propyl]-N,N,N-trimethylammonium chloride] | enhanced | – | – | –
CC(C)CCC[C@@H](C)[C@H]1CC[C@H]2[C@@H]3CC=C4C[C@@H](OC(=O)N(CCCN)CCCCNCCCN)CC[C@]4(C)[C@H]3CC[C@]12C [GL-67] | – | low levels | scored slightly lower than lungs that received lipid:pDNA complex | about 35%
